Test results reported in patent US20090281061A1, “Impaired Alleles of Genes Involved in Metabolic Pathways and Methods for Detecting and Using the Same” (The Regents of the University of California, priority 2008, published 2009).

Columns and labels:
human MTHFR [1] = assay: Cell-free MTHFR enzyme activity assay in crude yeast extract, with heat treatment at 55° C.; format: biochemical; settings: crude yeast lysate
human MTHFR [2] = biological target: T1, human MTHFR (Homo sapiens, UniProt P42898); assay: as above; format: biochemical; settings: 55° C., 20 m
T1 construct: made in house; host or cells: Saccharomyces cerevisiae fol3Δ met13Δ, GAL1 promoter, crude extract

Row | Substance | cell-free enzyme activity compared with the major allele (human MTHFR [1]) | activity retained after heat treatment, of original activity (human MTHFR [2])
1 | R594Q: common human MTHFR variant, regulatory domain | benign | –
2 | E429A: common human MTHFR variant, regulatory domain | benign | –
3 | major allele: the most common human MTHFR allele in the population, expressed in yeast | – | about 30%
